tested on: HCV genotype 1b replicon in Huh 7 cells; assay: HCV replicon assay (luciferase readout, 1b_Huh-Luc/Neo-ET cell line); assay type: cell-based; conditions: Hepatitis C virus, Huh-7, 72 h, read-out: Inhibition of HCV genotype 1b, Table 1, 72 h incubation
How it was run: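 Huh 7 cells carrying a bicistronic genotype 1b luciferase replicon treated with compound in triplicate for 72 h. Replicon level read as luciferase activity (Bright-Glo), expressed as % of control; EC50 from a sigmoidal Hill-slope fit, repeated several times.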

SMILES | EC50
COC(=O)N[C@H](C(=O)N1CCC[C@H]1c1ncc(-c2ccc([C@H]3CC[C@H](c4cnc([C@@H]5CCCN5C(=O)[C@@H](c5ccccc5)N(C)C)[nH]4)CC3)cc2)[nH]1)C(C)C [compound 940] | < 1 nM
COC(=O)N[C@H](C(=O)N1CCC[C@H]1c1ncc(-c2ccc([C@H]3CC[C@H](c4cnc([C@@H]5CCCN5C(=O)[C@H](C(C)C)N(C)C)[nH]4)CC3)cc2)[nH]1)C(C)C [compound 941] | < 1 nM
COC(=O)N[C@H](C(=O)N1CCC[C@H]1c1ncc(-c2ccc([C@H]3CC[C@H](c4cnc([C@@H]5CCCN5C(=O)[C@@H](NC(=O)OC)C5CC5)[nH]4)CC3)cc2)[nH]1)C1CC1 [compound 942] | < 1 nM
CC[C@H](C)[C@H](NC(=O)OC)C(=O)N1CCC[C@H]1c1ncc(-c2ccc([C@H]3CC[C@H](c4cnc([C@@H]5CCCN5C(=O)[C@@H](NC(=O)OC)[C@@H](C)CC)[nH]4)CC3)cc2)[nH]1 [compound 943] | < 1 nM
COC(=O)N[C@H](C(=O)N1CCC[C@H]1c1ncc(-c2ccc([C@H]3CC[C@H](c4cnc([C@@H]5CCCN5C(=O)[C@H](NC(=O)NC5CCOCC5)C(C)C)[nH]4)CC3)cc2)[nH]1)C(C)C [compound 944] | < 1 nM
COC(=O)N[C@H](C(=O)N1CCC[C@H]1c1ncc(-c2ccc([C@H]3CC[C@H](c4cnc([C@@H]5CCCN5C(=O)[C@@H](NC(=O)OC5CCOCC5)C(C)C)[nH]4)CC3)cc2)[nH]1)C(C)C [compound 945] | < 1 nM
COC(=O)N[C@H](C(=O)N1CCC[C@H]1c1ncc(-c2ccc([C@H]3CC[C@H](c4cnc([C@@H]5CCCN5C(=O)[C@H](NC(=O)OC5CCOCC5)C(C)C)[nH]4)CC3)cc2)[nH]1)C(C)C [compound 946] | < 1 nM
COC(=O)N[C@H](C(=O)N1CCC[C@H]1c1ncc(-c2ccc([C@H]3CC[C@H](c4cnc([C@@H]5CCCN5C(=O)[C@@H](c5ccccc5)N5CCCCC5)[nH]4)CC3)cc2)[nH]1)C(C)C [compound 947] | < 1 nM
COC(=O)N[C@H](C(=O)N1CCC[C@H]1c1ncc(-c2ccc([C@H]3CC[C@H](c4cnc([C@@H]5CCCN5C(=O)[C@H](NC(=O)OC)c5ccccc5)[nH]4)CC3)cc2)[nH]1)C(C)C [compound 2001] | < 1 nM
COC(=O)N[C@H](C(=O)N1CCC[C@H]1c1ncc([C@H]2CC[C@H](c3ccc(-c4cnc([C@@H]5CCCN5C(=O)[C@H](NC(=O)OC)c5ccccc5)[nH]4)cc3)CC2)[nH]1)C(C)C [compound 2002] | < 1 nM
COC(=O)N[C@H](C(=O)N1CCC[C@H]1c1ncc(-c2ccc([C@H]3CC[C@H](c4cnc([C@@H]5CCCN5C(=O)[C@H](NC(=O)N5CCC(O)CC5)c5ccccc5)[nH]4)CC3)cc2)[nH]1)C(C)C [compound 2003] | < 1 nM
CNC(=O)N[C@H](C(=O)N1CCC[C@H]1c1ncc(-c2ccc([C@H]3CC[C@H](c4cnc([C@@H]5CCCN5C(=O)[C@H](NC(=O)OC)c5ccccc5)[nH]4)CC3)cc2)[nH]1)C(C)C [compound 2004] | < 1 nM
COC(=O)N[C@H](C(=O)N1CCC[C@H]1c1ncc(-c2ccc([C@H]3CC[C@](C)(c4cnc([C@@H]5CCCN5C(=O)[C@@H](NC(=O)OC)C(C)C)[nH]4)CC3)cc2)[nH]1)C(C)C [compound 2005] | < 1 nM
COC(=O)N[C@@H](C(=O)N1CCC[C@H]1c1ncc(-c2ccc([C@H]3CC[C@](C)(c4cnc([C@@H]5CCCN5C(=O)[C@H](NC(=O)OC)c5ccccc5)[nH]4)CC3)cc2)[nH]1)c1ccccc1 [compound 2006] | < 1 nM

same assay, conditions: Hepatitis C virus, Huh-7, 72 h, read-out: Inhibition of HCV genotype 1b, Table 3, 72 h incubation

SMILES | EC50
COC(=O)N[C@@H](C(=O)N1CCC[C@H]1c1ncc(-c2cc(F)c(N3CCC(C)(c4cnc([C@@H]5CCCN5C(=O)[C@H](NC(=O)OC)c5ccccc5)[nH]4)CC3)c(F)c2)[nH]1)c1ccccc1 [compound 2028] | < 1 nM

same assay, conditions: Hepatitis C virus, Huh-7, 72 h, read-out: Inhibition of HCV genotype 1b, Table 4, 72 h incubation

SMILES | EC50
O=C(N[C@@H](C(=O)N1CCC[C@H]1c1nc2ccc(-c3ccc(-c4ccc5nc([C@@H]6CCCN6C(=O)[C@H](NC(=O)C6CC6)c6ccccc6)[nH]c5c4)cc3)cc2[nH]1)c1ccccc1)C1CC1 [compound 930] | < 1 nM
COC(=O)N[C@H](C(=O)N[C@@H](C)c1nc2ccc(-c3ccc(-c4ccc5nc([C@H](C)NC(=O)[C@@H](NC(=O)OC)C(C)C)[nH]c5c4)cc3)cc2[nH]1)C(C)C [compound 932] | < 1 nM
COC(=O)N[C@H](C(=O)N1CCC[C@H]1c1nc2ccc(-c3ccc(-c4ccc5nc([C@@H]6CCCN6C(=O)[C@H](C(C)C)N(C)C)[nH]c5c4)cc3)cc2[nH]1)C(C)C [compound 933] | < 1 nM
COC(=O)N[C@H](C(=O)N1CCC[C@H]1c1nc2ccc(-c3ccc(-c4ccc5nc([C@@H]6CCCN6C(=O)[C@@H](C(C)C)N(C)C)[nH]c5c4)cc3)cc2[nH]1)C(C)C [compound 934] | < 1 nM
COC(=O)N[C@H](C(=O)N1CCC[C@H]1c1nc2ccc(-c3ccc(-c4ccc5nc([C@H](C)NC(=O)[C@H](C(C)C)N(C)C)[nH]c5c4)cc3)cc2[nH]1)C(C)C [compound 935] | < 1 nM
COC(=O)N[C@H](C(=O)N1CCC[C@H]1c1nc2ccc(-c3ccc(-c4ccc5nc([C@H](C)NC(=O)[C@@H](C(C)C)N(C)C)[nH]c5c4)cc3)cc2[nH]1)C(C)C [compound 936] | < 1 nM
COC(=O)N[C@H](C(=O)N[C@@H](C)c1nc2ccc(-c3ccc(-c4ccc5nc([C@@H]6CCCN6C(=O)[C@H](C(C)C)N(C)C)[nH]c5c4)cc3)cc2[nH]1)C(C)C [compound 937] | 1 to 9.9 nM
COC(=O)N[C@H](C(=O)N[C@@H](C)c1nc2ccc(-c3ccc(-c4ccc5nc([C@@H]6CCCN6C(=O)[C@@H](C(C)C)N(C)C)[nH]c5c4)cc3)cc2[nH]1)C(C)C [compound 938] | < 1 nM
COC(=O)N[C@H](C(=O)N1CCC[C@H]1c1nc2ccc(-c3ccc(-c4ccc5nc([C@H](C)NC(=O)[C@@H](c6ccccc6)N(C)C)[nH]c5c4)cc3)cc2[nH]1)C(C)C [compound 939] | < 1 nM
COC(=O)N[C@@H](C(=O)N1CCC[C@H]1c1nc2ccc(-c3ccc(-c4ccc5nc([C@@H]6CCCN6C(=O)[C@H](NC(=O)OC)C(C)C)[nH]c5c4)cc3)cc2[nH]1)C(C)C [compound 2035] | 10 to 999 nM
COC(=O)N[C@H](C(=O)N1CCC[C@H]1c1nc2ccc(-c3cnc(-c4ccc5nc([C@@H]6CCCN6C(=O)[C@@H](NC(=O)OC)C(C)C)[nH]c5c4)cn3)cc2[nH]1)C(C)C [compound 2036] | < 1 nM
COC(=O)N[C@H](C(=O)N[C@@H](C)c1nc2ccc(-c3ccc(-c4ccc5nc([C@@H]6CCCN6C(=O)[C@@H](c6ccccc6)N(C)C)[nH]c5c4)cc3)cc2[nH]1)C(C)C [compound 2037] | < 1 nM
COC(=O)N[C@H](C(=O)N1CCC[C@H]1c1nc2ccc(-c3ccc(-c4ccc5nc([C@@H]6CCCN6C(=O)[C@@H](c6ccccc6)N(C)C)[nH]c5c4)cc3)cc2[nH]1)C(C)C [compound 2038] | < 1 nM
COC(=O)N[C@H](C(=O)N1CCC[C@H]1c1nc2ccc(-c3ccc(-c4ccc5nc([C@@H]6CCCN6C(=O)[C@@H](NC(=O)OC)C6CCOCC6)[nH]c5c4)cc3)cc2[nH]1)C1CCOCC1 [compound 2039] | < 1 nM

same assay, conditions: Hepatitis C virus, Huh-7, 72 h, read-out: Inhibition of HCV genotype 1b, Table 5, 72 h incubation

SMILES | EC50
COC(=O)N[C@H](C(=O)N1CCC[C@H]1c1ncc(-c2ccc(C34CCC(c5cnc([C@@H]6CCCN6C(=O)[C@@H](NC(=O)OC)[C@H](C)O)[nH]5)(CC3)CC4)cc2)[nH]1)[C@H](C)O [compound 909] | 1 to 9.9 nM
CCC(CC)[C@H](NC(=O)OC)C(=O)N1CCC[C@H]1c1ncc(-c2ccc(C34CCC(c5cnc([C@@H]6CCCN6C(=O)[C@@H](NC(=O)OC)C(CC)CC)[nH]5)(CC3)CC4)cc2)[nH]1 [compound 910] | < 1 nM
COC(=O)N[C@H](C(=O)N1CCC[C@H]1c1ncc(-c2ccc(C34CCC(c5cnc([C@@H]6CCCN6C(=O)[C@H](C(C)C)N(C)C(=O)OC)[nH]5)(CC3)CC4)cc2)[nH]1)C(C)C [compound 911] | < 1 nM
COC(=O)N[C@H](C(=O)N1CCC[C@H]1c1ncc(C23CCC(c4ccc(-c5cnc([C@@H]6CCCN6C(=O)[C@H](C(C)C)N(C)C(=O)OC)[nH]5)cc4)(CC2)CC3)[nH]1)C(C)C [compound 912] | < 1 nM
COC(=O)N(C)[C@H](C(=O)N1CCC[C@H]1c1ncc(-c2ccc(C34CCC(c5cnc([C@@H]6CCCN6C(=O)[C@H](C(C)C)N(C)C(=O)OC)[nH]5)(CC3)CC4)cc2)[nH]1)C(C)C [compound 913] | < 1 nM
COC(=O)N[C@H](C(=O)N1CCC[C@H]1c1ncc(C23CCC(c4ccc(-c5cnc([C@@H]6CCCN6C(=O)[C@@H](NC6CCOCC6)C(C)C)[nH]5)cc4)(CC2)CC3)[nH]1)C(C)C [compound 914] | 10 to 999 nM
COC(=O)N[C@H](C(=O)N1CCC[C@H]1c1ncc(C23CCC(c4ccc(-c5cnc([C@@H]6CCCN6C(=O)[C@H](NC6CCOCC6)C(C)C)[nH]5)cc4)(CC2)CC3)[nH]1)C(C)C [compound 915] | < 1 nM
COC(=O)N[C@@H](C)C(=O)N1CCC[C@H]1c1ncc(-c2ccc(C34CCC(c5cnc([C@@H]6CCCN6C(=O)[C@H](C)NC(=O)OC)[nH]5)(CC3)CC4)cc2)[nH]1 [compound 916] | < 1 nM
COC(=O)N[C@H](C)C(=O)N1CCC[C@H]1c1ncc(-c2ccc(C34CCC(c5cnc([C@@H]6CCCN6C(=O)[C@@H](C)NC(=O)OC)[nH]5)(CC3)CC4)cc2)[nH]1 [compound 917] | < 1 nM
COC(=O)N[C@H](C(=O)N1CCC[C@H]1c1ncc(-c2ccc(C34CCC(c5cnc([C@@H]6CCCN6C(=O)[C@@H](Nc6ncccn6)C(C)C)[nH]5)(CC3)CC4)cc2)[nH]1)C(C)C [compound 918] | < 1 nM
CC(C)[C@@H](C(=O)N1CCC[C@H]1c1ncc(-c2ccc(C34CCC(c5cnc([C@@H]6CCCN6C(=O)[C@H](C(C)C)N(C)C)[nH]5)(CC3)CC4)cc2)[nH]1)N(C)C [compound 919] | 10 to 999 nM
CC(C)[C@H](C(=O)N1CCC[C@H]1c1ncc(-c2ccc(C34CCC(c5cnc([C@@H]6CCCN6C(=O)[C@@H](C(C)C)N(C)C)[nH]5)(CC3)CC4)cc2)[nH]1)N(C)C [compound 920] | 10 to 999 nM

— patent US9120779B2, “Inhibitors of HCV NS5A” (PRESIDIO PHARMACEUTICALS, INC., priority 2008, dated 2015)
